Measured values published in patent US20250171423A1, “PHARMACEUTICAL COMPOUNDS FOR THE TREATMENT OF COMPLEMENT MEDIATED DISORDERS” (Achillion Pharmaceuticals, Inc., priority 2020, published 2025).

Each molecule was assayed against T1, Human complement C1s enzyme (Homo sapiens, UniProt P09871) (assay: Human C1s Enzyme Assay). Details: human C1s 1.16 nM, 5 min preincubation, substrate Z-L-Lys-SBzl 100 μM, A405; read-out: C1s Protease Activity.
T1 construct: purified from human serum, Complement Technology, Inc; purchased Complement Technology, Inc; host or cells: human serum
T1 sequence (P09871 438-688 limits assumed): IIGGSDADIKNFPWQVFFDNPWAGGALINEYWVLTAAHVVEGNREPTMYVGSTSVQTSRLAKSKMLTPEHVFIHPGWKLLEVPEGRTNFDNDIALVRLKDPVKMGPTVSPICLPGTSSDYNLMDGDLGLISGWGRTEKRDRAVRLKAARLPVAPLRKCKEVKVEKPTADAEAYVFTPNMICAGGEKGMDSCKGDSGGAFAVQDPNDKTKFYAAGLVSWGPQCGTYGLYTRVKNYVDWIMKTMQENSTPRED
T1 sequence (P09871 16-437 partner limits assumed): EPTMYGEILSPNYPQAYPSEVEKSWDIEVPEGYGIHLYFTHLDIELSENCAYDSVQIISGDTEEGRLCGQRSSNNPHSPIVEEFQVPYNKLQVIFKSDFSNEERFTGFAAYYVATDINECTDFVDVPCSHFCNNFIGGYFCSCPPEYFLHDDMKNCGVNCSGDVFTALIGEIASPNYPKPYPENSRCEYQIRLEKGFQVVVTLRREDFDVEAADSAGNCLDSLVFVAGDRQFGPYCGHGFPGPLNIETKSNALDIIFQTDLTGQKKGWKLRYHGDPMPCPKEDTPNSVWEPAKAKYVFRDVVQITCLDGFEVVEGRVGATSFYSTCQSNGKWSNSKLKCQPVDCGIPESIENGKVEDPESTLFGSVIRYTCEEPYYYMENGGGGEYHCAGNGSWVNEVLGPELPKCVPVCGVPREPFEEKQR
Type: biochemical
Outline: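 C1s purified from human serum (1.16 nM final) was preincubated with compound for 5 min at room temperature in 50 mM Tris, 1 M NaCl, pH 7.5. Z-L-Lys-SBzl and DTNB were then added at 100 μM each, and A405 was followed for 30 min. IC50 came from nonlinear regression of reaction rates.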

| SMILES | IC50 [µM] |
| --- | --- |
| CC(COc1ccccc1)CC(=O)NCC(=O)N1CC2(C[C@H]1C(=O)NCc1cc(C(=N)N)cs1)OCCO2 (stereo partly drawn) [Compound 70, (8S)-N-((4-carbamimidoylthiophen-2-yl)methyl)-7-((3-methyl-4-phenoxybutanoyl)glycyl)-1,4-dioxa-7-azaspiro[4.4]nonane-8-carboxamide] | < 0.1 |
| CO/C(=N/C#N)c1csc(CNC(=O)[C@@H]2C[C@]3(C)C[C@@H]3N2C(=O)CNC(=O)c2ccc(Oc3ccccc3)cc2)c1 [Compound 31, methyl (E)-N-cyano-5-(((1S,3S,5S)-5-methyl-2-((4-phenoxybenzoyl)glycyl)-2-azabicyclo[3.1.0]hexane-3-carboxamido)methyl)thiophene-3-carbimidate] | > 1 |
| C[C@@]12C[C@@H]1N(C(=O)CNC(=O)COCCOCCNC(=O)COCCOCCNC(=O)CC[C@H](NC(=O)CCCCCCCCCCCCCCCCC(=O)O)C(=O)O)[C@H](C(=O)NCc1cc(C(=N)N)cs1)C2 [Compound 100, 17-{[(1S)-3-{[2-(2-{[(2-{2-[({2-[(1S,3S,5S)-3-{[(4-carbamimidoylthiophen-2-yl)methyl]-carbamoyl}-5-methyl-2-azabicyclo[3.1.0]hexan-2-yl]-2-oxoethyl}carbamoyl)methoxy]ethoxy}ethyl)-carbamoyl]methoxy}ethoxy)ethyl]carbamoyl}-1-carboxypropyl]-carbamoyl}heptadecanoic acid] | > 1 |
| CS(=O)(=O)[C@@H]1C[C@@H](C(=O)NCc2cc(C(=N)N)cs2)N(C(=O)CNC(=O)CCCOc2ccccc2)C1 [Compound 98, (2S,4R)-N-((4-carbamimidoylthiophen-2-yl)methyl)-4-(methylsulfonyl)-1-((4-phenoxybutanoyl)glycyl)pyrrolidine-2-carboxamide] | < 0.1 |
| N=C(N)c1csc(CNC(=O)[C@@H]2C[C@]3(CN2C(=O)CNC(=O)CCCOc2ccccc2)CC3(F)F)c1 [Compound 57, (3R,6S)-N-((4-carbamimidoylthiophen-2-yl)methyl)-1,1-difluoro-5-((4-phenoxy-butanoyl)glycyl)-5-azaspiro[2.4]heptane-6-carboxamide] | < 0.1 |
| C[C@@H](NC(=O)[C@@H]1C[C@@]23COCCCCCCCCCCCCCC(=O)N[C@@H](CCOc4ccccc4)C(=O)NCC(=O)N1[C@H]2C3)c1cc(C(=N)N)cs1 [Compound 255, (1R,19S,25S,28S)-N-((R)-1-(4-carbamimidoylthiophen-2-yl)ethyl)-17,20,23-trioxo-19-(2-phenoxyethyl)-3-oxa-18,21,24-triazatricyclo[22.2.2.0^125]octacosane-28-carboxamide] | < 0.1 |
| Cc1ccccc1[C@H]1C[C@@H](C(=O)NCc2cc(C(=N)N)cs2)N(C(=O)CNC(=O)CCCOc2ccccc2)C1 [Compound 150] | < 0.1 |
| C[C@@]12C[C@@H]1N(C(=O)CN1Cc3cc(Oc4ccccc4)ccc3C1=O)[C@H](C(=O)NCc1cc(C(=N)N)cs1)C2 [Compound 101, (1S,3S,5S)-N-((4-carbamimidoylthiophen-2-yl)methyl)-5-methyl-2-(2-(1-oxo-5-phenoxyisoindolin-2-yl)acetyl)-2-azabicyclo[3.1.0]hexane-3-carboxamide] | < 0.1 |
| C/N=C(/NC)c1csc(CNC(=O)[C@@H]2C[C@]3(C)C[C@@H]3N2C(=O)CNC(=O)c2ccc(Oc3ccccc3)cc2)c1 [Compound 222, (1S,3S,5S)-N-((4-((E)-N,N′-dimethylcarbamimidoyl)thiophen-2-yl)methyl)-5-methyl-2-((4-phenoxybenzoyl)glycyl)-2-azabicyclo[3.1.0]hexane-3-carboxamide] | > 1 |
| C[C@@H](NC(=O)[C@@H]1C[C@@H](S(C)(=O)=O)CN1C(=O)CNC(=O)CCCOc1ccccc1)c1cc(C(=N)N)cs1 [Compound 125, (2S,4R)-N-((R)-1-(4-carbamimidoylthiophen-2-yl)ethyl)-4-(methylsulfonyl)-1-((4-phenoxybutanoyl)glycyl)pyrrolidine-2-carboxamide] | < 0.1 |
| C[C@@]12C[C@@H]1N(C(=O)CNC(=O)c1ccc(Oc3ccccc3)cc1)[C@H](C(=O)NCc1cc(-c3ncc[nH]3)cs1)C2 [Compound 38, (1S,3S,5S)-N-((4-(1H-imidazol-2-yl)thiophen-2-yl)methyl)-5-methyl-2-((4-phenoxybenzoyl)glycyl)-2-azabicyclo[3.1.0]hexane-3-carboxamide] | < 0.1 |
| CC(C)[C@@H](NC(=O)[C@@H]1CC2(CN1C(=O)CNC(=O)CCCOc1ccccc1)OCCO2)c1cc(C(=N)N)cs1 [Compound 167, (S)-N-((R)-1-(4-carbamimidoylthiophen-2-yl)-2-methylpropyl)-7-((4-phenoxybutanoyl)glycyl)-1,4-dioxa-7-azaspiro[4.4]nonane-8-carboxamide] | > 1 |
| COc1ccc(CNC(=O)[C@@H]2C[C@]3(C)C[C@@H]3N2C(=O)CNC(=O)c2ccc(Oc3ccccc3)cc2)cc1 [Compound 43, (1S,3S,5S)-N-(4-methoxybenzyl)-5-methyl-2-((4-phenoxy-benzoyl)-glycyl)-2-azabicyclo[3.1.0]hexane-3-carboxamide] | > 1 |
| C[C@@H](NC(=O)[C@@H]1C[C@@H](OC(F)F)CN1C(=O)CNC(=O)CCCOc1ccc(F)cc1)c1cc(C(=N)N)cs1 [Compound 108, (2S,4R)-N-((R)-1-(4-carbamimidoylthiophen-2-yl)ethyl)-4-(difluoromethoxy)-1-((4-(4-fluorophenoxy)butanoyl)glycyl)pyrrolidine-2-carboxamide] | < 0.1 |
| C[C@@]12C[C@@H]1N(C(=O)CNC(=O)CCCOc1cccc(C(=O)O)c1)[C@H](C(=O)NCc1cc(C(=N)N)cs1)C2 [Compound 165, 3-(4-((2-((1S,3S,5S)-3-(((4-carbamimidoylthiophen-2-yl)methyl)carbamoyl)-5-methyl-2-azabicyclo[3.1.0]hexan-2-yl)-2-oxoethyl)amino)-4-oxobutoxy)benzoic acid] | < 0.1 |
| N=C(N)c1ccc(CNC(=O)[C@@H]2CC3(CN2C(=O)CNC(=O)CCCOc2ccccc2)OCCO3)s1 [Compound 83, (S)-N-((5-carbamimidoylthiophen-2-yl)methyl)-7-((4-phenoxybutanoyl)glycyl)-1,4-dioxa-7-azaspiro[4.4]nonane-8-carboxamide] | < 0.1 |

Other lines, results leading:

| IC50 [µM] | SMILES |
| --- | --- |
| < 0.1 | C[C@@H](NC(=O)[C@@H]1C[C@H](C2CCCCC2)CN1C(=O)CNC(=O)c1ccc(Oc2ccccc2)cc1)c1cc(C(=N)N)cs1 [Compound 241, (2S,4R)-N-((R)-1-(4-carbamimidoylthiophen-2-yl)ethyl)-4-cyclohexyl-1-((4-phenoxybenzoyl)glycyl)pyrrolidine-2-carboxamide] |
| < 0.1 | C[C@@H](NC(=O)[C@@H]1C[C@@H](Oc2ccc(F)cc2)CN1C(=O)CNC(=O)CCCOc1ccccc1)c1cc(C(=N)N)cs1 [Compound 119, (2S,4R)-N-((R)-1-(4-carbamimidoylthiophen-2-yl)ethyl)-4-(4-fluorophenoxy)-1-((4-phenoxybutanoyl)glycyl)pyrrolidine-2-carboxamide] |
| > 1 | COC(=O)C(NC(=O)[C@@H]1C[C@@H](OC(F)F)CN1C(=O)CNC(=O)c1ccc(Oc2ccccc2)cc1)c1cc(C(=N)N)cs1 (stereo partly drawn) [Compound 189, methyl 2-(4-carbamimidoylthiophen-2-yl)-2-((2S,4R)-4-(difluoromethoxy)-1-((4-phenoxybenzoyl)glycyl)pyrrolidine-2-carboxamido)acetate] |
| < 0.1 | C[C@H](NC(=O)[C@@H]1C[C@]2(C)C[C@@H]2N1C(=O)CNC(=O)c1ccc(Oc2ccccc2)cc1)c1cc(C(=N)N)cs1 (single isomer, unassigned) [Compound 47, (1S,3S,5S)-N-((S*)-1-(4-carbamimidoylthiophen-2-yl)ethyl)-5-methyl-2-((4-phenoxy-benzoyl)glycyl)-2-azabicyclo[3.1.0]hexane-3-carboxamide] |
| 0.1 to 1 | C[C@@H](NC(=O)[C@@H]1C[C@]2(C)C[C@@H]2N1C(=O)CNC(=O)c1ccc(Oc2ccccc2)cc1)c1cc(C(=N)N)cs1 (single isomer, unassigned) [Compound 49, (1S,3S,5S)-N-((R*)-1-(4-carbamimidoylthiophen-2-yl)ethyl)-5-methyl-2-((4-phenoxy-benzoyl)glycyl)-2-azabicyclo[3.1.0]hexane-3-carboxamide] |
| < 0.1 | N=C(N)c1csc(CNC(=O)[C@@H]2CC(=C(F)F)CN2C(=O)CNC(=O)c2ccc(Oc3ccccc3)cc2)c1 [Compound 1, (S)-N-((4-carbamimidoylthiophen-2-yl)methyl)-4-(difluoromethylene)-1-((4-phenoxybenzoyl)glycyl)pyrrolidine-2-carboxamide] |
| > 1 | C[C@@]12C[C@@H]1N(C(=O)CNC(=O)c1ccc(Oc3ccccc3)cc1)[C@H](C(=O)NCc1cc(/C(N)=N/[N+](=O)[O-])cs1)C2 [Compound 11, (1S,3S,5S)-5-methyl-N-((4-((Z)-N′-nitrocarbamimidoyl)thiophen-2-yl)methyl)-2-((4-phenoxybenzoyl)glycyl)-2-azabicyclo[3.1.0]hexane-3-carboxamide] |
